Experiments:
[1] = target: T1, Ba/F3-FGFR1-transfected cells (Homo sapiens, UniProt P11362); test: Ba/F3-FGFR1 (minus IL3) cellular proliferation assay, Alamar Blue; type: cell-based
T1 construct: BAF3-FGFR1 (MIN IL3) pIC50; other: minus IL3
Summary of the method: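 Viability was measured by resazurin reduction (fluorescence, 540 nm excitation/590 nm emission) after a 4 h Alamar Blue incubation. This followed 24 h of compound treatment at 37 °C, 5% CO2, of 20000 FGFR1-transfected Ba/F3 cells per well in 10% FBS RPMI-1640.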

[2] = test system: Ba/F3-KDR-transfected cells; test: Ba/F3-KDR (plus IL3) cellular proliferation assay, counterscreen with 10 ng/ml murine IL3; type: cell-based; conditions: plus IL3 (10 ng/ml murine IL3, counterscreen); read-out: BAF3-KDR (PLUS IL3) pIC50 (converted)
Summary of the method: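 Proliferation read-out by Alamar Blue fluorescence (ex. 540 nm, em. 590 nm) after 4 hours, following 24 hours of compound treatment at 37° C of 20000 Ba/F3-KDR cells per well in RPMI-1640/10% FBS. Same protocol with 10 ng/ml murine IL3 serves as counterscreen.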

FGFR1 (h) = FGFR1 (h) (Homo sapiens, UniProt P11362); test: FGFR1 (enzymatic assay), TR-FRET; type: biochemical; conditions: read-out: FGFR 1 pIC50 (converted)
Sequence of FGFR1 (h) (P11362 22-822): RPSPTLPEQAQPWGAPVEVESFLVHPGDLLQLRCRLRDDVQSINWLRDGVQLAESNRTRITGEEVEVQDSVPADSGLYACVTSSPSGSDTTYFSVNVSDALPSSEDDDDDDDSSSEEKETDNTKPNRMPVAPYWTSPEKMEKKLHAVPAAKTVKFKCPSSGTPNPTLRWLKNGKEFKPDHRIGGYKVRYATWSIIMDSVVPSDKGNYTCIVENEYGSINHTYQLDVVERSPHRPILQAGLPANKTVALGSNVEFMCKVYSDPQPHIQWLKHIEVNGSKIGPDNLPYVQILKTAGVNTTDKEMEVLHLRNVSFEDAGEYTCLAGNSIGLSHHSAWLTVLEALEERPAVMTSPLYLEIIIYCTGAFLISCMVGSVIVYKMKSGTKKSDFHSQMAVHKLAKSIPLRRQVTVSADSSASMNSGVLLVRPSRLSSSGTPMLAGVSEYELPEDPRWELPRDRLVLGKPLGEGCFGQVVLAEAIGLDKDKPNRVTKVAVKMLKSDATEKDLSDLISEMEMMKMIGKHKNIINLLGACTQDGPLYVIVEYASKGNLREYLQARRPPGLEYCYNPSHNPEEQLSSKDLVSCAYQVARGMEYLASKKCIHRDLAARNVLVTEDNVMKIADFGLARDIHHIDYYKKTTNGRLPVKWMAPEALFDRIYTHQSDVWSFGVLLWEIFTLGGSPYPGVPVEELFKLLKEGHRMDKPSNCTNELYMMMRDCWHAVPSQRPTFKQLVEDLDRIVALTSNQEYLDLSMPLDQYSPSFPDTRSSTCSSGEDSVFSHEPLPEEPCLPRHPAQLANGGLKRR

FGFR2 (h) = FGFR2 (h) (Homo sapiens, UniProt P21802); test: FGFR2 (enzymatic assay), TR-FRET; type: biochemical; conditions: enzymatic assay; read-out: FGFR 2 pIC50 (converted)
Sequence of FGFR2 (h) (P21802 22-821): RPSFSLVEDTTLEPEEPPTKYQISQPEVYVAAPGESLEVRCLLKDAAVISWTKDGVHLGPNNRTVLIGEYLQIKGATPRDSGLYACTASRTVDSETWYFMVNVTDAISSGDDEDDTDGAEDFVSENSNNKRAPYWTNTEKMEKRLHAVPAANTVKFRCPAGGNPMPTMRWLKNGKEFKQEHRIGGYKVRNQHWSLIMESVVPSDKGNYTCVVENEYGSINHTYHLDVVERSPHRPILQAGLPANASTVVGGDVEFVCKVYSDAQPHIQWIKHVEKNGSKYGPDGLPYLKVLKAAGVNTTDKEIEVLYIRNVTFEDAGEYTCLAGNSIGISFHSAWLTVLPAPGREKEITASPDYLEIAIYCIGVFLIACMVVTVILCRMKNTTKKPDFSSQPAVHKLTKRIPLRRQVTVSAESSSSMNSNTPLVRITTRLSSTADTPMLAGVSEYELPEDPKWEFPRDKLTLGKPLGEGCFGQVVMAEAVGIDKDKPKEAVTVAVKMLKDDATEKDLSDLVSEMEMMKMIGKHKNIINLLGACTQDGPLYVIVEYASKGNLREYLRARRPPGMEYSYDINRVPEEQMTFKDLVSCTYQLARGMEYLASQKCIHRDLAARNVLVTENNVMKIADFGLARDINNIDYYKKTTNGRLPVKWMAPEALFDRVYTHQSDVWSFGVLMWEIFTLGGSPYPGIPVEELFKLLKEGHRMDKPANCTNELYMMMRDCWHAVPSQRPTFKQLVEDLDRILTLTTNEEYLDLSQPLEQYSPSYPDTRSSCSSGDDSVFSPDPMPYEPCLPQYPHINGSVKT
Summary of the method: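 hFGFR2 150 ng/ml; Btn-Flt3 500 nM; ATP 0.4 μM; 50 mM HEPES pH 7.5, 6 mM MnCl2, 1 mM DTT, 0.1 mM Na3VO4, 0.01% Triton-X-100; 1% DMSO final.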

FGFR4 (h) = FGFR4 (h) (Homo sapiens, UniProt P22455); test: FGFR4 (enzymatic assay), TR-FRET; type: biochemical; conditions: FGFR 4 pIC50, enzymatic assay
Sequence of FGFR4 (h) (P22455 22-802): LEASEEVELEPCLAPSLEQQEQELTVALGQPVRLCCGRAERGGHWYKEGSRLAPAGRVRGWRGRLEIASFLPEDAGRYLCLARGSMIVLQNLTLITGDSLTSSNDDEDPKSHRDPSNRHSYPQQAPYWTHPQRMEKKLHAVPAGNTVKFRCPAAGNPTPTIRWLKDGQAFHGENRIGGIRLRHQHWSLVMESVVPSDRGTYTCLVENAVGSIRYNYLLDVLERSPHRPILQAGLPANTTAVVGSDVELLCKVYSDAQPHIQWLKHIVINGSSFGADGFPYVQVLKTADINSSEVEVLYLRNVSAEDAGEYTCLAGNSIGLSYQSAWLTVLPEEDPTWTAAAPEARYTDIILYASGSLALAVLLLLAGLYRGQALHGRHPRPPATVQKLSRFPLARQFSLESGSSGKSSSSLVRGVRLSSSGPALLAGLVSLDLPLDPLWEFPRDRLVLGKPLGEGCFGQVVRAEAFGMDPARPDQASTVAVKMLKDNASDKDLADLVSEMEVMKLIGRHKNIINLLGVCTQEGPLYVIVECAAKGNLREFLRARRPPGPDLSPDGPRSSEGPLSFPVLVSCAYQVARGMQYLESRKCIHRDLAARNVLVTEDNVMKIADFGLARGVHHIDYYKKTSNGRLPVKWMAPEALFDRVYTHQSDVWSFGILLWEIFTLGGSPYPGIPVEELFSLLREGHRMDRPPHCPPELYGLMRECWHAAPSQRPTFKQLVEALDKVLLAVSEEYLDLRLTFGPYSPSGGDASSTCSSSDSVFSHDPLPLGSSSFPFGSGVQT

FGFR3 (h) = FGFR3 (h) (Homo sapiens, UniProt P22607); test: FGFR3 (enzymatic assay), TR-FRET; type: biochemical; conditions: read-out: FGFR 3 pIC50 (converted)
Sequence of FGFR3 (h) (P22607 23-806): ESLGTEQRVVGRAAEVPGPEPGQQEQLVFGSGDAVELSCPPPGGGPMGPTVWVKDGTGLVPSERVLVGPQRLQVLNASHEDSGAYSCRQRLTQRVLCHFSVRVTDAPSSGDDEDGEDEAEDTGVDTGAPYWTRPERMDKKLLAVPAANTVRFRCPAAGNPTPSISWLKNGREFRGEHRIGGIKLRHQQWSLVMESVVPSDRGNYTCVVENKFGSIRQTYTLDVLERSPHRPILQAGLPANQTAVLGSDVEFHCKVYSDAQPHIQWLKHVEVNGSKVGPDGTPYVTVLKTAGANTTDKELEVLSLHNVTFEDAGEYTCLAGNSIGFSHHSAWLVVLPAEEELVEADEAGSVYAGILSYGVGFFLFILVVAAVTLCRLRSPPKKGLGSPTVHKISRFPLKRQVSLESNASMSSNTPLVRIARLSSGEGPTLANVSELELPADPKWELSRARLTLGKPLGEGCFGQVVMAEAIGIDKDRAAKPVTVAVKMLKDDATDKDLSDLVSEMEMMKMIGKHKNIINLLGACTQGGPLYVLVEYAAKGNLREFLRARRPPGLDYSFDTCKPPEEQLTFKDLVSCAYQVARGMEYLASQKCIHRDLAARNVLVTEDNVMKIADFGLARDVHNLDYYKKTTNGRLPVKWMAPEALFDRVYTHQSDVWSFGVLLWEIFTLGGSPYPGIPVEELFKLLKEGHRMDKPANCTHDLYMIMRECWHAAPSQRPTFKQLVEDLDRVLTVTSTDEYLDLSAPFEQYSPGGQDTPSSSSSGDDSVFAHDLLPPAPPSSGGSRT
Excerpt: Time-Resolved Fluorescence Resonance Energy Transfer (TR-FRET) signal (ex340 nm.

T1 sequence (P11362 whole entry, change not shown): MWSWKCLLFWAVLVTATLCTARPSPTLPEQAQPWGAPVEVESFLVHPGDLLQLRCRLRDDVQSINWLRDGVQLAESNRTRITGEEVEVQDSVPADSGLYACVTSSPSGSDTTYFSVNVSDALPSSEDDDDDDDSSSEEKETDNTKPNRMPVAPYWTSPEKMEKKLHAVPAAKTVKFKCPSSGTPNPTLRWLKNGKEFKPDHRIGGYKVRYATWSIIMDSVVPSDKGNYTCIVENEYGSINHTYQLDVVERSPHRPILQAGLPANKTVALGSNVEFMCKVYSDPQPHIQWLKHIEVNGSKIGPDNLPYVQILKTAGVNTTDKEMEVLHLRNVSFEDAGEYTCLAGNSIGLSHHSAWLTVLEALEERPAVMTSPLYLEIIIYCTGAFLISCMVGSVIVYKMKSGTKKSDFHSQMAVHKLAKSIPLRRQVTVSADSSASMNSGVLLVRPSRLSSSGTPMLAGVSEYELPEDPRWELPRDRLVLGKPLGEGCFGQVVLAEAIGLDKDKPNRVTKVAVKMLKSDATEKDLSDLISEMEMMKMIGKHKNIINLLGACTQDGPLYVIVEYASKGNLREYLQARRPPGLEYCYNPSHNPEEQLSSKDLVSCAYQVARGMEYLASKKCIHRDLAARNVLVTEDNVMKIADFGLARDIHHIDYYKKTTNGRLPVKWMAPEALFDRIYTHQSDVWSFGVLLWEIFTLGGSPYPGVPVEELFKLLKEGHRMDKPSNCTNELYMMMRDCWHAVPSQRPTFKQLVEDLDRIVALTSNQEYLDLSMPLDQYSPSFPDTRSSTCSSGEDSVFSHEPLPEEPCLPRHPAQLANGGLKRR

SMILES | BAF3-FGFR1 (MIN IL3) pIC50 [1] | IC50 [2] [nM] | IC50 (FGFR1 (h)) [nM] | IC50 (FGFR2 (h)) [nM] | IC50 (FGFR4 (h)) [nM] | IC50 (FGFR3 (h)) [nM]
COc1cc(OC)c(F)c(N(CCN)c2ccc3ncc(-c4cnn(C)c4)nc3n2)c1 [Compound 168] | 7.48 | > 10000 | 1.7 | 2.04 | 4.57 | 3.16
COc1cc(OC)cc(N(Cc2nc(OC)cc(OC)n2)c2ccc3ncc(-c4cnn(C)c4)nc3n2)c1 [Compound 174] | 5.68 | > 10000 | ~39.8 | 6.92 | 77.6 | 36.3
Cn1cc(-c2cnc3ccc(N(Cc4ncc[nH]4)c4c(F)c(F)cc(F)c4F)nc3n2)cn1 [Compound 175] | 6.87 | > 10000 | 4.07 | 1.91 | 4.79 | 2
COc1cc(OC)c(F)c(N(Cc2ncco2)c2ccc3ncc(-c4cnn(C)c4)nc3n2)c1 [Compound 177] | 7.22 | > 10000 | 1.78 | 1.62 | 2.45 | 1.07
COc1cc(OC)c(F)c(N(Cc2c(C)noc2C)c2ccc3ncc(-c4cnn(C)c4)nc3n2)c1 [Compound 178] | 6.20 | > 10000 | 11.2 | 7.41 | 19.5 | 3.55
COc1cc(/N=c2\ccc3ncc(-c4cnn(C)c4)nc3n2Cc2c(C)noc2C)c(F)c(OC)c1 [Compound 179] | <5.52 | > 3020 | 2.95 | 2.57 | 3.47 | 1.26
COc1cc(OC)c(F)c(N(Cc2cc(C)on2)c2ccc3ncc(-c4cnn(C)c4)nc3n2)c1 [Compound 180] | 7.43 | > 10000 | 1.1 | 1.62 | 1.66 | 1.07
COc1cc(/N=c2\ccc3ncc(-c4cnn(C)c4)nc3n2Cc2cc(C)on2)c(F)c(OC)c1 [Compound 181] | 7.76 | > 10000 | 1.51 | 2.19 | 1.05 | 1.55
COc1cc(OC)cc(N(Cc2ncc[nH]2)c2ccc3ncc(-c4cccnc4)nc3n2)c1 [Compound 182] | 7.60 | > 10000 | 1.7 | 2.04 | 2.34 | 1.15
COc1cc(/N=c2\ccc3ncc(-c4cnn(C)c4)nc3n2Cc2cc(C)no2)c(F)c(OC)c1 [Compound 184] | ~8.34 | > 10000 | 0.977 | 2.19 | 1.17 | 1.35
COc1cc(OC)c(F)c(N(Cc2cc(C)no2)c2ccc3ncc(-c4cnn(C)c4)nc3n2)c1 [Compound 185] | 7.59 | > 10000 | 0.851 | 1.51 | 0.977 | 0.912
COc1cc(OC)c(F)c(N(Cc2ncc[nH]2)c2ccc3ncc(-c4cn[nH]c4)nc3n2)c1 [Compound 190] | 8.19 | > 10000 | 0.617 | 1.29 | 1.12 | 1.23
COc1cc(OC)c(F)c(N(Cc2ncc[nH]2)c2ccc3ncc(-c4cccnc4)nc3n2)c1 [Compound 190a] | 7.94 | > 10000 | 1.02 | 2.04 | 2.95 | 2
COc1cc(OC)c(F)c(N(Cc2cnn(C)c2)c2ccc3ncc(-c4cnn(C)c4)nc3n2)c1 [Compound 195] | 8.08 | > 10000 | 0.589 | 2.04 | 0.871 | 0.871
COc1cc(/N=c2\ccc3ncc(-c4cnn(C)c4)nc3n2Cc2cnn(C)c2)c(F)c(OC)c1 [Compound 196] | 8.95 | > 10000 | 0.407 | 2.14 | ~0.891 | 0.912
COc1cc(OC)cc(N(Cc2nn[nH]n2)c2ccc3ncc(-c4cnn(C)c4)nc3n2)c1 [Compound 197] | <5 | > 10000 | 22.4 | 11.2 | 34.7 | 14.5
COc1cc(OC)cc(N(Cc2ncc[nH]2)c2ccc3ncc(-c4ccn(C)c4)nc3n2)c1 [Compound 198] | 8.48 | > 10000 | 0.309 | 1.07 | 0.661 | 0.646
COc1cc(OC)c(F)c(N(Cc2ncc[nH]2)c2ccc3ncc(-c4ccccc4)nc3n2)c1 [Compound 200] | 8.37 | > 10000 | 0.537 | 1.7 | 1.48 | 1.45
COc1cc(OC)cc(N(Cc2ncc[nH]2)c2ccc3ncc(-c4ccncc4)nc3n2)c1 [Compound 202] | 7.47 | > 10000 | 1.12 | 1.74 | 2.82 | 1.62
COc1cc(OC)cc(N(Cc2nncn2CCO)c2ccc3ncc(-c4cnn(C)c4)nc3n2)c1 [Compound 204] | 6.15 | > 10000 | 11.2 | 11 | 60.3 | 15.1
COc1cc(OC)cc(N(Cc2ncn(CCO)n2)c2ccc3ncc(-c4cnn(C)c4)nc3n2)c1 [Compound 205] | 6.31 | > 10000 | 3.89 | 5.13 | 47.9 | 14.5
CCOCc1c[nH]c(CN(c2ccc3ncc(-c4cnn(C)c4)nc3n2)c2cc(OC)cc(OC)c2F)n1 [Compound 206] | 7.89 | > 10000 | 1.38 | 4.17 | 2.95 | 2.51
COc1cc(OC)c(F)c(N(Cc2ncc[nH]2)c2ccc3ncc(-c4cnn(C(CO)CCl)c4)nc3n2)c1 (stereo not drawn) [Compound 209] | 8.71 | > 10000 | 0.776 | 2.4 | 1.12 | 1.32
COc1cc(OC)c(F)c(N(Cc2ncc[nH]2)c2ccc3ncc(-c4ccncc4)nc3n2)c1 [Compound 211] | 8.08 | > 10000 | 1 | ~2.34 | 2.29 | 1.51
COc1cc(OC)cc(N(CCO)c2ccc3ncc(-c4ccncc4)nc3n2)c1 [Compound 213] | 6.57 | > 10000 | 4.27 | 5.62 | 25.1 | 3.8
COC(=O)CN(c1ccc2ncc(-c3cnn(C)c3)nc2n1)c1cc(OC)cc(OC)c1F [Compound 214] | 7.08 | > 10000 | 2.4 | 2.57 | 11.2 | 2.4
COc1cc(OC)c(F)c(N(Cc2ncc[nH]2)c2ccc3ncc(N4CCOCC4)nc3n2)c1F [Compound 215] | 8.25 | > 10000 | 0.741 | 2.09 | 2.14 | ~1.26

From patent US9309242B2, “Substituted pyrido[2,3-b]pyrazines as FGFR kinase inhibitors” (priority 2011, dated 2016)
